The text below walks through data of patent US10532065B2, “Bisphosphonic acid derivative and application for same” (NAGASAKI UNIVERSITY, priority 2014, dated 2020).

Holding throughout (assay type): cell-based
Experiment [1] relates to EJ-1 cells. The experiment can be described thus: EJ-1 cell growth inhibition (direct antitumor action, CellTiterGlo). To be noted: for IC50: EJ-1 (bladder cancer) growth inhibition, 4 days culture. The procedure: (§1) The direct antitumor action of bisphosphonic acid POM ester and bisphosphonic acid was studied by comparison using U937.
The direct antitumor action of bisphosphonic acid POM ester derivatives and bisphosphonic acids was studied by comparison using EJ-1. It was performed in the same manner as in Experimental Example 1 except that EJ-1 was used as the cell to be used. For recovery of the cells, a conventional EDTA trypsin treatment was performed.
The direct antitumor action of bisphosphonic acid POM esters and bisphosphonic acids was studied by comparison using EJ-1. It was performed in the same manner as in Experimental Example 2 except that EJ-1 was used as the cell to be used. For recovery of the cells, a conventional EDTA trypsin treatment was performed.
(§2) The direct antitumor action of various bisphosphonic acid POM esters was studied by comparison using U937 and EJ-1. The measurement was performed according to Experimental Example 2 and Experimental Example 4.

The subject of experiment [2] is U937 cells. The experiment can be described thus: U937 cell growth inhibition (direct antitumor action, CellTiterGlo). The settings on record: for IC50: U937 cell growth inhibition, 4 days culture. The procedure: as §1, §2
On the technique in general: ATP-based viability assays read luminescence as a measure of living cells.

In experiment [3] the test system is EJ-1 cells / γδ T cells. The experiment can be described thus: TNF-α production from γδ T cells stimulated by compound-pretreated EJ-1 cells (indirect antitumor action, ELISA). To be noted: for EC50: EJ-1 pretreated 4 hr with compound, 16 hr with γδ T cells, TNF-α ELISA, read-out: TNF-α50. Here is the method: The indirect antitumor action of bisphosphonic acid POM esters and bisphosphonic acids was studied by comparison using EJ-1. In principle, EJ-1 is treated with a compound, washed, and reacted with γδ T cells, and the cytotoxic ability is studied by comparison, by quantifying TNF-α produced by γδ T cells during cell disordering. TNF-α is generally used as an index of γδ T cell induction ability and/or proliferative capacity, and γδ T cells are considered to be induced and/or proliferated in proportion to the TNF-α amount (Journal of Immunology, 154, 5986-5994 (1995)). Since the produced TNF-α is what is called a tumor necrosis factor, it is considered to have an action to lower proliferation of cancer cells or induce cell death.
Thereto was added a solution (500 μl) of compounds 3, 5, 6, 7, which are bisphosphonic acid POM ester derivatives, obtained by serially diluting 10 mM stock solution 10-fold from 20 μM, or a solution (500 μl) of bisphosphonic acid 10, 12, 13, 14 compound obtained by serially diluting 10-fold from 200 μM, and the cells were suspended well. These conical tubes were stood at 37° C. for 4 hr, and the cells were washed 3 times with 5 ml of culture medium. To these cells was added 500 μl of medium, and the cells were suspended well. […] The cell culture medium was suspended well, and the plate was centrifuged at 1,700 rpm, 4° C. for 2 min and the culture supernatant (150 μl) was taken and placed in another round-bottomed 96 well plate. The plate was frozen at −80° C. overnight, left standing at room temperature for 1 hr, stirred well and 100 μl thereof was subjected to ELISA of TNF-α. The content of TNF-α was calculated from the analytical curve of TNF-α. These were performed in triplicate, and a graph showing bisphosphonic acid POM ester derivative and the corresponding bisphosphonic acid as one pair was plotted. […] The results of bisphosphonic acid POM ester derivative are shown by -●-, and the results of bisphosphonic acid are shown by -◯-.
The indirect antitumor action of bisphosphonic acid POM esters and bisphosphonic acids was quantitatively studied by comparison using EJ-1. […] Thereto was added a solution (500 μl) of a bisphosphonic acid POM ester derivative obtained by serially diluting 10 mM stock solution 10-fold from 20 μM, or a bisphosphonic acid solution (500 μl) serially diluted 10-fold from 200 μM was added, and the cells were suspended well. These conical tubes were stood at 37° C. for 4 hr, and the cells were washed 3 times with 5 ml of culture medium. To these cells was added 500 μl of medium, and the cells were suspended well. […] The cell culture medium was suspended well, and the plate was centrifuged at 1,700 rpm, 4° C. for 2 min and the culture supernatant (150 μl) was taken and placed in another round-bottomed 96 well plate. The plate was frozen at −80° C. overnight, left standing at room temperature for 1 hr, stirred well and 100 μl thereof was subjected to ELISA of TNF-α. The content of TNF-α was calculated from the analytical curve of TNF-α. These were performed in triplicate, and a half of the concentration of compounds 1-7, which are bisphosphonic acid POM ester derivatives, and compounds 8-14, which are bisphosphonic acids, necessary for producing the maximum amount of TNF-α from γδ T cells was calculated as TNF-α50, and summarized in Table 6.
Therefore, the TNF-α50 value of various bisphosphonic acid POM ester derivatives was calculated. […] Thereto was added a solution (500 μl) of compounds 1-7 and 15-39, which are bisphosphonic acid POM ester derivatives, and compound 42, which is other bisphosphonic acid ester derivative, obtained by serially diluting 10 mM stock solution 10-fold from 20 μM, and the cells were suspended well. These conical tubes were stood at 37° C. for 4 hr, and the cells were washed 3 times with 5 ml of culture medium. To these cells was added 500 μl of medium, and the cells were suspended well. […]

Each structure is given as a SMILES string. Where two headings read alike, the source gives them in different places.

With `CC(C)(C)C(=O)OCOP(=O)(OCOC(=O)C(C)(C)C)C(CNc1ncccn1)P(=O)(OCOC(=O)C(C)(C)C)OCOC(=O)C(C)(C)C` [Compound 6, tetrakispivaloyloxymethyl 2-(pyrimidin-2-ylamino)ethylidene-1,1-bisphosphonate], the IC50 – broadly, the midpoint of a concentration-inhibition curve – in experiment [1] turned out to be 0.09 µM; in experiment [2], 2.4 µM. For the same molecule, the “direct antitumor activity (in words)” value in experiment [1] (EJ-1 growth inhibition) and in experiment [2] (U937 growth inhibition) was “high activity” in each case. Moreover, in experiment [3], the EC50 amounted to 0.08 µM. The “TNF-α production induction activity (in words)” value in experiment [3] (EJ-1 pretreated with compound, γδ T cells) is “high activity”.
As to `CC(C)(C)C(=O)OCOP(=O)(OCOC(=O)C(C)(C)C)C(CNc1ncccc1-c1ccc(F)cc1)P(=O)(OCOC(=O)C(C)(C)C)OCOC(=O)C(C)(C)C` [Compound 26, tetrakispivaloyloxymethyl 2-[3-(4-fluorophenyl)pyridin-2-ylamino]ethylidene-1,1-bisphosphonate], the 50% inhibitory concentration (IC50) was 8.7 µM in experiment [1] and 7 µM in experiment [2]. Also, in experiment [3], the EC50 was above 10 µM.
`O=P(O)(O)C(CNc1ncccn1)P(=O)(O)O` [Compound 13, 2-(pyrimidin-2-ylamino)ethylidene-1,1-bisphosphonic Acid, reference compound]: the IC50 in experiment [1] (EJ1, 96 h) is 23 µM; in experiment [2] (Homo sapiens, U-937, 96 h), 150 µM. Further, the EC50 in experiment [3] (EJ1) is 48 µM.
Consider `Cc1cccc(NCC(P(=O)(OCOC(=O)C(C)(C)C)OCOC(=O)C(C)(C)C)P(=O)(OCOC(=O)C(C)(C)C)OCOC(=O)C(C)(C)C)n1` [Compound 20, tetrakispivaloyloxymethyl 2-(6-methylpyridin-2-ylamino)ethylidene-1,1-bisphosphonate], for which the results for the 50% inhibitory concentration (IC50) in experiment [1] and in experiment [2] were 16 µM and 6.9 µM, respectively. Also, the EC50 in experiment [3] was found to be 3.7 µM.
For `CC(C)(C)C(=O)OCOP(=O)(OCOC(=O)C(C)(C)C)C(CNc1nncs1)P(=O)(OCOC(=O)C(C)(C)C)OCOC(=O)C(C)(C)C` [Compound 38, tetrakispivaloyloxymethyl 2-(1,3,4-thiadiazol-2-ylamino)ethylidene-1,1-bisphosphonate], the half-maximal inhibitory concentration (IC50) in experiment [1] was 8.5 µM; in experiment [2], 11 µM. Also, in experiment [3], the EC50 came out at 1.9 µM.
On the same counts, the results for `CC(C)(C)C(=O)OCOP(=O)(OCOC(=O)C(C)(C)C)C(CNc1ccc(C(F)(F)F)cn1)P(=O)(OCOC(=O)C(C)(C)C)OCOC(=O)C(C)(C)C` [Compound 17, tetrakispivaloyloxymethyl 2-(5-trifluoromethylpyridin-2-ylamino)ethylidene-1,1-bisphosphonate] are 4.3 µM, 2.6 µM and above 10 µM.
Turning to `Cc1ccc(NCC(P(=O)(O)O)P(=O)(O)O)nc1` [Compound 10, 2-(methylpyridin-2-ylamino)ethylidene-1,1-bisphosphonic Acid, reference compound], the half-maximal inhibitory concentration (IC50) in experiment [1] (EJ1, 96 h) was 7.9 µM; in experiment [2] (Homo sapiens, U-937, 96 h), 29 µM. Moreover, the EC50 in experiment [3] (EJ1) was 48 µM.
